Assay [1] concerns Clock protein. Put plainly: Immunolabeling of Clock protein in skin biopsies ex vivo. It counts as cell-based, human. Particulars: treated skin. The procedure: (§1) A study of the activating effect of the peptide SEQ ID no. 3 was carried out by evaluating the expression of Clock, Per-1 and BMAL-1 proteins in skin biopsies ex vivo.
(§2) Ex vivo studies by immunolabeling have made it possible to evidence the expression of Clock, Per-1 and BMAL-1 proteins in skin samples. Samples of human skin are cultured at the air/liquid interface. The peptide SEQ ID no. 3 diluted to 1% (from a 10^−4M solution) is applied topically to these samples for 48 hr.
(§3) Skin samples not treated with the peptide SEQ ID no. 3 serve as a control. The skin samples are fixed with 10% formaldehyde and enclosed in paraffin. Sectional cuts of 3 μm are then made with a microtome. The immunolabeling is carried out after removal of the paraffin and unmasking of the antigenic sites. The immunolabeling for the Clock protein is carried out by means of an antibody (ABcam) diluted 1/250 and a secondary antibody diluted 1/50 and coupled to a fluorochrome.
(§4) The slides are then mounted in a suitable medium and observed under epifluorescence microscope (Nikon Eclipse E600).

The subject of another assay is Per-1 protein. Nature of the assay: Immunolabeling of Per-1 protein in skin biopsies ex vivo. Type of assay: cell-based, human. The settings on record: treated skin. Here is the method:
as §1, §2, §3
The immunolabeling for the Per-1 protein is carried out by a polyclonal antibody (Cosmobio) diluted 1/100 and a secondary antibody diluted 1/50 and coupled to a fluorochrome.
as §4

A further assay deals with BMAL-1 protein. Nature of the assay: Immunolabeling of BMAL-1 protein in skin biopsies ex vivo. Type of assay: cell-based, human. The settings on record: treated skin. The procedure: as §1, §2, §3
The immunolabeling for the BMAL-1 protein is carried out by a polyclonal antibody (Aviva Systems Biology) diluted 1/120 and a secondary antibody diluted 1/50 and coupled to a fluorochrome.
as §4

For assay [2], the system named is Clock protein. Put plainly: Immunolabeling of Clock protein in skin samples aged artificially during culture. Type of assay: cell-based, human. The procedure:
A study of the activating effect of the peptide SEQ ID no. 3 was carried out by evaluating the expression of the Clock protein in skin models, aged artificially during culture. The analysis was carried out after 62 hr and 134 hr of culturing.
Ex vivo studies by immunolabeling have made it possible to evidence the expression of the Clock protein in skin samples aged during culture. Samples of human skin are cultured at the air/liquid interface for 62 hr and 134 hr. The peptide SEQ ID no. 1 diluted to 1% (from a 10^−4M solution) is applied topically to these samples at a rate of two times per day during the period of the experiment.
Skin samples not treated with the peptide SEQ ID no. 3 serve as a control. The skin samples are fixed with 10% formaldehyde and enclosed in paraffin. Sectional cuts of 3 μm are made with a microtome. The immunolabeling is carried out after removal of the paraffin and unmasking of the antigenic sites. The immunolabeling for the Clock protein is carried out by means of an anti-rabbit antibody (ABcam) diluted 1/250 and a secondary antibody diluted 1/50 and coupled to a fluorochrome.
as §4

A further assay relates to cultured fibroblasts. Put plainly: Beta-galactosidase (X-gal) senescence labeling of cultured fibroblasts. Type of assay: cell-based. Particulars: peptide diluted to 1%, once a day, versus untreated control cells. The procedure: A study of the anti-aging effect of the peptide SEQ ID no. 3 was carried out by evaluating the activity of the beta-galactosidase on cultured fibroblasts in the short and long term. In fact, beta-galactosidase is known to be present in senescent cells whereas beta-galactosidase activity is not found in pre-senescent, quiescent or immortal cells.
Fibroblasts cultured in 8-well labtecks are kept for 2 weeks (short term effect) or 7 weeks (long term effect) in the presence or absence of the peptide SEQ ID no. 3, diluted to 1% (from a 10^−4M solution). The treatment is carried out once a day. The cells which were untreated, but kept in culture for 2 or 7 weeks per the requirements of the experiment serve as controls. On the day of labeling, the cells are rinsed, fixed in a mixture (2% glutaraldehyde-2% formaldehyde) for 3 minutes. The cells are rinsed and 300 μl of (5-bromo-4-chloro-3 indolyl b-D-galactosidase), known commonly as X-gal (substrate of beta-galactosidase), are applied. Incubation is carried out for 24 hr in an incubator in the presence of CO2, then the cells are rinsed and the labteck is quickly placed in a suitable medium. Observation is carried out under transmission microscope. The principle is simple: when the cells are senescent and contain beta-galactosidase, the X-gal substrate is cleaved into a blue, insoluble product.

The test system of assay [3] is Clock protein. Put plainly: Western blot of Clock protein expression in cultured fibroblasts. It counts as cell-based. Here is the method: A study of the activating effect of the peptide SEQ ID no. 2 was carried out by evaluating the expression of the Clock proteins by western blot in cultured fibroblasts. The technique of western blotting is a semi-quantitative method which makes it possible to evaluate the level of Clock proteins in cells.
Cultured fibroblasts are cultivated in containers with a diameter of 100 mm at 37° C. in a humidified atmosphere containing 5% CO2 for 18 hr in the presence or absence of the peptide SEQ ID no. 2, diluted to 1% (from a 10^−4M solution). The cells are rinsed and then removed from the support with the aid of an extraction buffer (20 mM TRIS, 150 mM NaCl, 10 mM EDTA, 0.2% triton […]) in the presence of a cocktail of protease inhibitors (Sigma). The proteins thus extracted are centrifuged at 4° C. at 10,000 rpm for 10 minutes, before being dosed by the BCA protein dosing kit (Pierce). The cellular lysates are mixed with a denaturing buffer and subjected to SDS-PAGE electrophoresis. The gel used is 4-12% Nupage (Invitrogen). The proteins are then transferred to a nitrocellulose membrane (Pal corporation). […] The quantitative evaluation of the proteins present in the cells was carried out using the chemiimager software (Alpha innotech Corporation USA).
(In western blotting, separated proteins are transferred to a membrane and probed.)

Two substances from patent publication US20110269695A1, “NOVEL ANTI-AGING PEPTIDES AND COSMETIC AND/OR PHARMACEUTICAL COMPOSITION CONTAINING SAME” (ISP INVESTMENTS, priority 2009, published 2011) can be followed below.

Where no end group is shown, it is not given here.

As to Ser-Thr-Pro-NH2 [SEQ ID no. 3], the “amount of Clock protein versus untreated skin” value with Clock protein [1] is on record as “greater”. Further, in the assay with Per-1 protein, the “amount of PER-1 protein versus untreated skin” value is “greater”. The “amount of BMAL-1 protein versus untreated skin” value in the assay on BMAL-1 protein is recorded as “greater”. Besides, in the assay on Clock protein [2] (after 62 hr of culturing), the “labeling of the Clock protein compared to untreated control, 62 hr” value is on record as “increased”. Moreover, the “labeling of the Clock protein compared to untreated control, 134 hr” value in the assay on Clock protein [2] (after 134 hr) is on record as “largely increased”. The “Beta-galactosidase activity (blue coloration), short term” value in the assay with cultured fibroblasts (2 weeks) is “largely reduced”. In addition, the “Beta-galactosidase activity (blue coloration), long term” value in the assay with cultured fibroblasts (7 consecutive weeks) is recorded as “largely reduced”.
“Val-Ser-Thr-Pro-Glu-NH2 (VSTPE-NH2) [SEQ ID no. 2]”: the “Intensity (%) of Clock protein, Experiment 1” value in the assay on Clock protein [3] (1% treatment (from a 10^-4M solution), 18 hr, cultured fibroblasts, luminous intensity compared to untreated control (100%)) came to 154%. The “amount of Clock protein in the cultured fibroblasts” value in the assay on Clock protein [3] (peptide diluted to 1%, western blot) was “significantly increases”.
